From PMC5941281, “Protecting group free radical C–H trifluoromethylation of peptides” (Chemical Science, 2018)

Assays:
[1] = target: human insulin receptor(B); assay: Insulin Receptor Phosphorylation Assay (MSD pIR assay); type: cell-based; details: CHO cells stably expressing human insulin receptor(B), serum starved, 40,000 cells/well, 8 min at 37 °C, read-out: EC50 (functional assay)
[2] = target: human insulin receptor(B); assay: Insulin Receptor Binding Assay (scintillation proximity assay); details: SPA, 384-well, membranes from CHO cells overexpressing human insulin receptor(B); [125I]-insulin 0.015 nM; room temperature, 1 to 12 hours
Method: Both the binding affinity and functional activity of 18 supported the conclusion that the A19-CF3-tyrosine–insulin maintained its structural integrity as compared with unmodified, native insulin. To further support this observation, SOFAST ^13C methyl HMQC NMR spectroscopic analysis was conducted on both 18 and native unmodified insulin.[18] […] This observation validated the notion that CF3-labeling of aromatic sidechains provides a sensitive ^19F-NMR spectroscopic probe of the local environment in complex peptides while being minimally perturbing to the overall structure of the biomacromolecule.
Insulin Receptor Binding Assays were run in a scintillation proximity assay (SPA) 384- we ll
format using cell membranes prepared from CHO cells overexpressing human insulin
receptor(B) grown in F12 media containing 10% FBS and antibiotics (G418,
Penicillin/[…]). Cell membranes were prepared in 50 mM Tris buffer, pH 7.8, containing
5 m M Mg Cl 2. The assay buffer contained 50 mM Tris buffer, pH 7.5, 150 mM NaCl, 1 mM
CaCl2, 5 mM MgCl 2, 0.1% BSA and protease inhibitors (Complete- Mi n i -Roche). Cell
membranes were added to W GA PVT PEI SPA beads (5 mg/mL f inal concentration) f ollowed by
addition of test molecules at appropriate concentrations. After 5-15 min incubation at room
temperature, [125I]- insulin was added at 0.015 nM f inal concentration f or a f inal total volume of
50 µL. […]

native insulin: recombinant human insulin, 21 amino acid A chain and 30 amino acid B chain linked by three disulfide bonds
EC50 [1]: 0.4 nM
IC50 [2]: 0.8 nM
